Several values for one entry are separate records, joined by “and”; a condition that tells them apart may be missing. Equal entries are not always repeated.
Tests used:
[1] = system: washed human red blood cells; assay: Hemolysis assay with washed human red blood cells; type: cell-based; conditions: washed human RBCs; for H10: concentration producing 10% hemolysis; for H50: concentration producing 50% hemolysis
Experimental: The blood was transferred from 1 EDTA tube to a 50 mL conical tissue culture tube and the volume was brought up to 50 mL with PBS.
The blood was centrifuged for 10 minutes at 1500 RPM. The supernatant was removed and the blood was resuspended up to 50 mL with PBS. Next the blood was centrifuged for 10 minutes at 1500 RPM.
The supernatant was removed, and 2.0 mL of packed red blood cells was carefully transferred, using positive displacement pipet, into a fresh conical tissue culture tube. Next, 48 mL PBS was added to achieve a 4% washed RBC solution.
Next, 25, 50, 100 and 200 uM stock solutions of test sample in phosphate buffered saline (PBS) as follows:
Next, 0.5 mL of 4% washed RBC was added to 0.5 mL test sample dilutions (in duplicate). The final concentration of test sample was 50% of working stock solution.
The samples were capped or sealed with Parafilm and the samples were gently mixed. […] The samples were centrifuged for 10 minutes at 1500 RPM. […] Absorbance was measured at 550 nm vs. a water blank. Next, H10 and H50 were determined by graphing Absorbance vs. Test Sample Concentration.

[2] = system: human tumor cell lines (9 panels); assay: NCI growth inhibition screen, all panels; type: cell-based; conditions: for activity as compared to ET-18-OCH3 (in words): all NCI panels; for activity compared to ET-18-OCH3 isomers (in words): colon and CNS panels of cell lines
Experimental: (§1) Candidates deemed suitable for in vivo testing were then synthesized in large scale quantities and some of this material was sent to the NCI's Developmental Therapeutics Program for a battery of growth inhibitory studies against various human tumor cell lines (60 cell lines, 9 different panels). The remainder of the material was used to assess in vivo efficacy using murine tumor models. Additionally, studies were conducted on the lead candidates to discern mechanism of action with particular emphasis on these agents apoptotic ability as measured by caspase 3 activity. The details (materials and methods) for these various assays are described further in the following discussion.
(§2) Ten compounds were also sent to NCI's Drug Discovery Program for screening against numerous human tumor cell lines (9 panels total: renal ovarian, colon, CNS, non-small cell lung, leukemia, breast, melanoma, and prostate). The data are shown in FIGS. 2a-i which also include data regarding D- and L-ET-18-OCH3 (listed as L-EL and D-EL in the figures). Upon examining the data, one is struck by how 1R and 1a′S standout in comparison to the other compounds, especially for the renal, ovarian, colon, and CNS panels.

UO-31 = assay: NCI growth inhibition screen, renal panel; type: cell-based, human; parameters: key to Performance as compared to ET-18-O—CH3: = means equivalent activity; + means that it appears to be significantly better (i.e., by ˜2x); < means it appears to be less active than ET18OCH3 (˜2x); a combination like =/+ or </+ means that activity is dependent upon the isomer; a combination like =/+ or </+ means that activity is dependent upon the isomer; conditions: for Performance as compared to ET-18-O—CH3: UO-31, Renal, from GI50s; for activity compared to ET-18-OCH3 (in words): UO-31 cell line, NCI screen
Experimental: as §1, §2

IGROV1 = assay: NCI growth inhibition screen, ovarian panel; type: cell-based, human; parameters: key: = means equivalent activity; + means that it appears to be significantly better (i.e., by ˜2x); < means it appears to be less active than ET18OCH3 (˜2x); a combination like =/+ or </+ means that activity is dependent upon the isomer; a combination like =/+ or </+ means that activity is dependent upon the isomer; conditions: from GI50s
Experimental: as §1, §2

OVCAR-3 = assay: NCI growth inhibition screen, ovarian panel; type: cell-based, human; parameters: key: = means equivalent activity; + means that it appears to be significantly better (i.e., by ˜2x); < means it appears to be less active than ET18OCH3 (˜2x); a combination like =/+ or </+ means that activity is dependent upon the isomer; a combination like =/+ or </+ means that activity is dependent upon the isomer; conditions: OVCAR-3, Ovarian; from GI50s
Experimental: as §1, §2

OVCAR-8 = assay: NCI growth inhibition screen, ovarian panel; type: cell-based, human; parameters: key: = means equivalent activity; + means that it appears to be significantly better (i.e., by ˜2x); < means it appears to be less active than ET18OCH3 (˜2x); a combination like =/+ or </+ means that activity is dependent upon the isomer; a combination like =/+ or </+ means that activity is dependent upon the isomer; conditions: OVCAR-8, Ovarian; from GI50s
Experimental: as §1, §2

SK-OV-3 = assay: NCI growth inhibition screen, ovarian panel; type: cell-based, human; parameters: key: = means equivalent activity; + means that it appears to be significantly better (i.e., by ˜2x); < means it appears to be less active than ET18OCH3 (˜2x); a combination like =/+ or </+ means that activity is dependent upon the isomer; a combination like =/+ or </+ means that activity is dependent upon the isomer; conditions: SK-OV-3, Ovarian; from GI50s
Experimental: as §1, §2

OVCAR-4 = assay: NCI growth inhibition screen, ovarian panel; type: cell-based, human; parameters: key to Performance as compared to ET-18-O—CH3: = means equivalent activity; + means that it appears to be significantly better (i.e., by ˜2x); < means it appears to be less active than ET18OCH3 (˜2x); a combination like =/+ or </+ means that activity is dependent upon the isomer; a combination like =/+ or </+ means that activity is dependent upon the isomer; conditions: for activity compared to both ET-18-OCH3 isomers (in words): OVCAR-4, NCI screen; for Performance as compared to ET-18-O—CH3: OVCAR-4, Ovarian, from GI50s
Experimental: as §1, §2

OVCAR-5 = assay: NCI growth inhibition screen, ovarian panel; type: cell-based, human; parameters: key to Performance as compared to ET-18-O—CH3: = means equivalent activity; + means that it appears to be significantly better (i.e., by ˜2x); < means it appears to be less active than ET18OCH3 (˜2x); a combination like =/+ or </+ means that activity is dependent upon the isomer; a combination like =/+ or </+ means that activity is dependent upon the isomer; conditions: for activity compared to both ET-18-OCH3 isomers (in words): OVCAR-5, NCI screen; for Performance as compared to ET-18-O—CH3: OVCAR-5, Ovarian, from GI50s
Experimental: as §1, §2

HOP-62 = assay: NCI growth inhibition screen, non-small cell lung panel; type: cell-based, human; conditions: for Performance as compared to ET-18-O—CH3: HOP-62, NS cell lung, from GI50s; for activity compared to other compounds (in words): HOP-62 cells, NCI screen
Experimental: as §1, §2

MALME-3M = assay: NCI growth inhibition screen, melanoma panel; type: cell-based, human; parameters: key to Performance as compared to ET-18-O—CH3: = means equivalent activity; + means that it appears to be significantly better (i.e., by ˜2x); < means it appears to be less active than ET18OCH3 (˜2x); a combination like =/+ or </+ means that activity is dependent upon the isomer; a combination like =/+ or </+ means that activity is dependent upon the isomer; conditions: for Performance as compared to ET-18-O—CH3: MALME-3M, Melanoma, from GI50s; for activity compared to ET-18-OCH3 (in words): melanoma MALME-3M cell line, NCI screen
Experimental: as §1, §2

SMILES	H10 [1]	H50 [1]	activity as compared to ET-18-OCH3 (in words) [2]	activity compared to ET-18-OCH3 isomers (in words) [2]	Performance as compared to ET-18-O—CH3 (UO-31)	activity compared to ET-18-OCH3 (in words) (UO-31)	Performance as compared to ET-18-O—CH3 (IGROV1)	Performance as compared to ET-18-O—CH3 (OVCAR-3)	Performance as compared to ET-18-O—CH3 (OVCAR-8)	Performance as compared to ET-18-O—CH3 (SK-OV-3)	activity compared to both ET-18-OCH3 isomers (in words) (OVCAR-4)	Performance as compared to ET-18-O—CH3 (OVCAR-4)	activity compared to both ET-18-OCH3 isomers (in words) (OVCAR-5)	Performance as compared to ET-18-O—CH3 (OVCAR-5)	Performance as compared to ET-18-O—CH3 (HOP-62)	activity compared to other compounds (in words) (HOP-62)	Performance as compared to ET-18-O—CH3 (MALME-3M)	activity compared to ET-18-OCH3 (in words) (MALME-3M)
CCCCCCCCCCCCCCCCCCOC[C@@H](COP(=O)([O-])OCC[N+](C)(C)C)OS(C)(=O)=O [1a′S]	16.5 µM	21.5 µM	equal or greater in activity	more active than even the ET-18-OCH3 isomers	64	more active	0	0	0	0	significantly better activity	2048	significantly better activity	4096	+/=	better than a few of the other compounds	0	ET-18-OCH3 was more active
CCCCCCCCCCCCCCCCCCOCC(COP(=O)([O-])OCC[N+](C)(C)C)OS(C)(=O)=O (stereo not drawn) [Compound 1aR]	16 µM and 13 µM	21.5 µM and 17 µM	equal or greater in activity	more active than even the ET-18-OCH3 isomers	+	more active	=	=	=	=	significantly better activity	+	significantly better activity	+	+/=	better than a few of the other compounds	<	ET-18-OCH3 was more active

Reference: patent US20060122153A1, “Antineoplastic ether lipid compounds with modifications at the sn-2 carbon” (priority 2003, published 2006)
